{"source": "patent US4396614A", "about": "“Novel steroids” (Uclaf; Roussel, priority 1980, dated 1983)", "key": {"aldosterone monoacetate": {"test_system": "aldosterone monoacetate", "assay": "Antialdosterone activity: diuresis test in surrenalectomized rats (Kagawa/Marcus)", "assay_type": "in vivo, rat", "conditions": "surrenalectomized male Sprague Dawley rats, 4 hours urine collection", "description": "The study was effected by a test inspired by Kagawa [P.S.E.B.M., Vol. 99 (1958), p. 705] and Marcus [Endocrinology, Vol. 50 (1952), p. 286] in which male rats of the Sprague Dawley SPF 1FFA CREDO strain weighing 180 g were surrenalectomized 7 days before diuresis while anestesized with Imalgene (Ketamine) intraperitoneally at a dose of 100 mg/kg. After the operation and from the night before the start of the test, the rats received physiological serum as drinking water and the animals were held without food or drink for 17 hours before diuresis and the physiological serum was replaced by water containing 5% glucose. The test products were orally administered before placing them in a cage and at the moment of diuresis, the animals received intraperitoneally a hydrosaline surcharge of 5 ml per rat of 9.permill. physiological serum and subcutaneously 1 μg/kg of aldosterone monoacetate in 2.5% alcoholic solution.\nThe rats were placed in pairs in a diuresis cage without food or drink for 4 hours and at this time, a forced emission was induced by pressure against the bladder and the volume of recovered urine was measured. After careful rinsing of the cages and the glass, the urine volume was adjusted to 50 ml and this solution was treated to determine the amount of potassium and sodium in the urine by flame photometry in an autoanalyszer. […] 125-132]. […]"}, "[1]": {"target": "T1, androgen hormonal receptor of prostate cytosol (Rattus norvegicus, UniProt P15207)", "T1 construct": "The homogenate was centrifuged at 105,000 g per hour and the surnageant or cytosol was adjusted to a dilution of 1/5; from tissue; host or cells: prostate cytosol of male rats castrated 24 hours earlier", "T1 sequence (P15207 1-902)": "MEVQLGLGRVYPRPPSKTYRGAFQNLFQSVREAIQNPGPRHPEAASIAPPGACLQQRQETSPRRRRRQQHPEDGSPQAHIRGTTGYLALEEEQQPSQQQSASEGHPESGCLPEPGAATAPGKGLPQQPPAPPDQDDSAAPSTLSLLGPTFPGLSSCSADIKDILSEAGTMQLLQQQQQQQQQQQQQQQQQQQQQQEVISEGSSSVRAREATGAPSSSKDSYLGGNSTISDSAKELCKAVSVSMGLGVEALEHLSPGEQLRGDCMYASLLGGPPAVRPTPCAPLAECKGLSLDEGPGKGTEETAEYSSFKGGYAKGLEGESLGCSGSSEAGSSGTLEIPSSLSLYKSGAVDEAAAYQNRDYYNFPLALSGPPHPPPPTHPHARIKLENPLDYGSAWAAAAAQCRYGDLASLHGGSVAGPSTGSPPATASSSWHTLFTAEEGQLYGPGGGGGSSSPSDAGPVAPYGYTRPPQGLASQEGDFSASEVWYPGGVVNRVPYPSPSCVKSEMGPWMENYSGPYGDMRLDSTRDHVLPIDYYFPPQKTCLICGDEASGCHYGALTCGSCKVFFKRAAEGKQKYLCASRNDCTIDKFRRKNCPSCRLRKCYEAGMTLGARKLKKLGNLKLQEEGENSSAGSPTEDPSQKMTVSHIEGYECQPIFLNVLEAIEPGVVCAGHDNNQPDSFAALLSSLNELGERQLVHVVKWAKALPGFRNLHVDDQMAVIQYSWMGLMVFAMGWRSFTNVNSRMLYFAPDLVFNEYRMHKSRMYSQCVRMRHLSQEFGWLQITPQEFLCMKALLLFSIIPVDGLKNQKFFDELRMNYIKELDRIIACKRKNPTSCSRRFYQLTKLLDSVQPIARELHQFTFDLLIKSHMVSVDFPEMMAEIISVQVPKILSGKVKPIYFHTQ", "assay": "Androgenic activity: hormonal receptor method of Raynaud, displacement of tritiated 17α-methyl-Δ^4,9,11-estratriene-17β-ol-3-one (Product R) in prostate cytosol", "assay_type": "binding", "conditions": "prostate cytosol of castrated male rats, incubated at 0° C. for 2 hours", "procedure": "The latter was homogenized in a buffered solution of 10 mm of tromethamine, 0.25 M of saccharose and a pH of 7.4 with hydrochloric acid. The homogenate was centrifuged at 105,000 g per hour and the surnageant or cytosol was adjusted to a dilution of 1/5 (weight/volume). The resulting solution was incubated at 0° C. for 2 hours in tubes with the same volume of cytosol with a fixed concentration of tritiated 17α-methyl-Δ^4,9,11 - estratriene-17β-ol-3-one (designated as tritiated Product R) in the presence or not of an increasing concentration of radioinactive 17α-methyl-Δ^4,9,11 -estratriene-17β-ol-3-one (designated as cold product R) or the test product. […] The plots were the curves representing the percentage of tritiated product R as a function of the log of the concentration of cold product R or the test product of the I50 straight line parallel to the axis of the abcisses and ordinates.\nB/T=(B/T Max.+B/T Min.)/2\nB/T max. is the percentage of tied tritiated product R when the product is not added and B/T min, is the percentage of tied tritiated product R when the maximum amount of cold product R is added."}}}
{"smiles": "CCC[C@@H]1CC2=CC(=O)C=C[C@]2(C)[C@H]2CC[C@@]3(C)[C@@H](CC[C@@]3(O)CCC(=O)O)[C@H]12", "note": "[Example 10, Potassium 7α-propyl-17α-Δ^1,4-pregnadiene-17β-ol-3-one-21-carboxylate]", "values": [{"measurement": "percentage of inhibition of the activity of 1 μg/kg of aldosterone monoacetate (log of ratio sodium concentration/potassium concentration in urine)", "setting": "aldosterone monoacetate; 0.4 mg/kg orally", "result": 30, "unit": "%"}, {"measurement": "percentage of inhibition of the activity of 1 μg/kg of aldosterone monoacetate (log of ratio sodium concentration/potassium concentration in urine)", "setting": "aldosterone monoacetate; 2 mg/kg orally", "result": 80, "unit": "%"}, {"measurement": "ARL (relative affinity = 100×(CT/CX))", "setting": "[1]", "result": 0.02}]}
